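Growth conditions: 96-well plates. Treatment: test compound, 48 hours, 5 concentrations. Analysis: linear interpolation between bracketing concentrations; unreached endpoints set to highest concentration. GI50 marks 50% less growth. TGI: total growth inhibition.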
Tests used:
Assay in all cases: inhibition of tumour cell growth, NCI panel, 48 h
[1] = test system: 786-0 renal
[2] = test system: A498 renal
[3] = test system: ACHN renal
[4] = test system: CAKI-1 renal
[5] = test system: CCRF-CEM leukemia
[6] = test system: COLO 205 colon
[7] = test system: DLD-1 colon
[8] = test system: DMS 114 small cell lung
[9] = test system: DMS 273 small cell lung
[10] = test system: EKVX NSCLC
[11] = test system: HCC-2998 colon
[12] = test system: HCT-15 colon
[13] = test system: HL-60(TB) leukemia
[14] = test system: HOP-18 NSCLC
[15] = test system: HOP-62 NSCLC
[16] = test system: HOP-92 NSCLC
[17] = test system: HT29 colon
[18] = test system: IGROV1 ovarian
[19] = test system: K-562 leukemia
[20] = test system: KM12 colon
[21] = test system: KM20L2 colon
[22] = test system: LOX IMVI melanoma
[23] = test system: LXFL 529 NSCLC
[24] = test system: M14 melanoma
[25] = test system: MALME-3M melanoma
[26] = test system: MOLT-4 leukemia

Q: For `CC([O-])=C1C(=O)c2ccccc2C1=O.CC([O-])=C1C(=O)c2ccccc2C1=O.CC[O-].CC[O-].[Ti+4]`, which GI50 [1] is on record?
A: > 100 µM

Q: What about the TGI [1] of the same molecule?
A: > 100 µM

Q: What about the GI50 [2] of the same molecule?
A: > 100 µM

Q: And the TGI [2]?
A: > 100 µM

Q: What about the GI50 [3] of the same molecule?
A: > 100 µM

Q: And the TGI [3]?
A: > 100 µM

Q: And the GI50 [4]?
A: 59.5 µM

Q: What about the TGI [4] of the same molecule?
A: > 100 µM

Q: What about the GI50 [5] of the same molecule?
A: > 100 µM

Q: And the TGI [5]?
A: > 100 µM

Q: What about the GI50 [6] of the same molecule?
A: 91.7 µM

Q: And the TGI [6]?
A: > 100 µM

Q: What about the GI50 [7] of the same molecule?
A: > 100 µM

Q: What about the TGI [7] of the same molecule?
A: > 100 µM

Q: What about the GI50 [8] of the same molecule?
A: > 100 µM

Q: What about the TGI [8] of the same molecule?
A: > 100 µM

Q: What about the GI50 [9] of the same molecule?
A: > 100 µM

Q: What about the TGI [9] of the same molecule?
A: > 100 µM

Q: What about the GI50 [10] of the same molecule?
A: > 100 µM

Q: What about the TGI [10] of the same molecule?
A: > 100 µM

Q: What about the GI50 [11] of the same molecule?
A: > 100 µM

Q: What about the TGI [11] of the same molecule?
A: > 100 µM

Q: And the GI50 [12]?
A: > 100 µM

Q: What about the TGI [12] of the same molecule?
A: > 100 µM

Q: What about the GI50 [13] of the same molecule?
A: > 100 µM

Q: What about the TGI [13] of the same molecule?
A: > 100 µM

Q: What about the GI50 [14] of the same molecule?
A: > 100 µM

Q: And the TGI [14]?
A: > 100 µM

Q: What about the GI50 [15] of the same molecule?
A: > 100 µM

Q: What about the TGI [15] of the same molecule?
A: > 100 µM

Q: What about the GI50 [16] of the same molecule?
A: > 100 µM

Q: And the TGI [16]?
A: > 100 µM

Q: What about the GI50 [17] of the same molecule?
A: > 100 µM

Q: And the TGI [17]?
A: > 100 µM

Q: What about the GI50 [18] of the same molecule?
A: > 100 µM

Q: And the TGI [18]?
A: > 100 µM

Q: What about the GI50 [19] of the same molecule?
A: > 100 µM

Q: And the TGI [19]?
A: > 100 µM

Q: And the GI50 [20]?
A: > 100 µM

Q: And the TGI [20]?
A: > 100 µM

Q: What about the GI50 [21] of the same molecule?
A: > 100 µM

Q: And the TGI [21]?
A: > 100 µM

Q: What about the GI50 [22] of the same molecule?
A: > 100 µM

Q: What about the TGI [22] of the same molecule?
A: > 100 µM

Q: What about the GI50 [23] of the same molecule?
A: 87.5 µM

Q: And the TGI [23]?
A: > 100 µM

Q: What about the GI50 [24] of the same molecule?
A: > 100 µM

Q: And the TGI [24]?
A: > 100 µM

Q: What about the GI50 [25] of the same molecule?
A: > 100 µM

Q: And the TGI [25]?
A: > 100 µM

Q: And the GI50 [26]?
A: > 100 µM

Q: And the TGI [26]?
A: > 100 µM

Source: PubChem BioAssay (NCI)
